Earlier results, collected in US20130108599A1, “Herbal Vaginal Compositions” (priority 2011, published 2013).

Key:
[1] = test system: Candida albicans (KCTC 7270)

Row | Compound | anti-microbial activity among the catechins (vaginal pathogens) | growth of C. albicans [1]
1 | O=C(O[C@@H]1Cc2c(O)cc(O)cc2O[C@@H]1c1cc(O)c(O)c(O)c1)c1cc(O)c(O)c(O)c1 [epigallocatechin gallate] | strongest anti-microbial activity | –
2 | Cn1c(=O)c2c(ncn2C)n(C)c1=O [caffeine] | – | strongly inhibited
